Assay results published in US6469028B1, “Synthesis and use of retinoid compounds having negative hormone and/or anatgonist activities” (Allergan, Inc., priority 1995, dated 2002).

Key:
[1] = test system: TPA-induced Str-AP1-CAT expression; assay: Example 13: anti-AP-1 activity, Str-AP1-CAT and pRS-hRARα in HeLa cells; type: cell-based; conditions: AGN 193109 alone, 10^−10 to 10^−8 M
[2] = test system: cervical carcinoma patients; assay: Example 23: clinical study in cervical carcinoma patients with metastatic disease; type: in vivo, human; conditions: maximum tolerated dose every other day, three months to one year
Method: Patients are divided into two groups. The first group is a control group while members of the second group are treated with AGN 193109. AGN 193109 is combined with a pharmaceutically acceptable excipient to produce a composition suitable for systemic administration, all according to techniques that will be familiar to one having ordinary skill in the art. The control group is administered a placebo formulation and the experimental group is administered with the formulation containing the AGN 193109 negative hormone. Dosing of patients is at the maximum tolerated dose and is performed every other day for a period of from three months to one year. The outcome of the study is quantified via measurement of disease-free survival over time.

[3] = Example 3: recovery from preexisting retinoid toxicity (body weight); type: in vivo, mice
Method: Groups of these same mice (n=5) were then treated topically either with vehicle or AGN 193109 in vehicle (4 ml/kg) daily for 3 consecutive days beginning on day 3. Mice were weighed on days 1-5 and on day 8. Body weights are expressed as the mean±SD. Means were compared statistically using an unpaired, two-tailed t-test. Differences were considered significant at P<0.05.

[4] = topical AGN 191183 0.13 mg/kg/d days 1-2, then topical AGN 193109 days 3-5, mean±SD

## Cc1ccc(C2=CCC(C)(C)c3ccc(C#Cc4ccc(C(=O)O)cc4)cc32)cc1 [Compound 60, 4-[(5,6-dihydro-5,5-dimethyl-8-(4-methylphenyl)-2-naphthalenyl)ethynyl]benzoic acid]
[1]
  inhibition of AP-1 mediated reporter activity: did not substantially inhibit
[2]
  disease-free survival: significant increase in disease-free survival
[3]; after AGN 191183-induced weight loss, t-test, P<0.05
  body weight relative to vehicle treatment: significantly increased body weight relative to vehicle treatment on days 4 and 5
[3]; [4]
  Body Weight (g) DAY 1: 23.9 ± 1.0 g
  Body Weight (g) DAY 2: 23.5 ± 1.2 g
  Body Weight (g) DAY 3: 21.4 ± 0.6 g
  Body Weight (g) DAY 4: 22.2 ± 0.7 g
  Body Weight (g) DAY 5: 22.8 ± 0.8 g
  Body Weight (g) DAY 8: 25.0 ± 1.1 g
